Patent US6949544B2, “Inhibitors of c-Jun N-terminal kinases (JNK) and other protein kinases” (Vertex Pharmaceuticals Incorporated, priority 2001, dated 2005)

Key:
Format in all cases: biochemical
[1] = target: T1, Lck kinase purified from bovine thymus (Bos taurus, UniProt Q3ZCM0); test: Lck inhibition assay (33P incorporation into poly Glu-Tyr); settings: for Ki: 10 μM ATP, read-out: Activity in the Lck Inhibition Assay (Ki rating A-C)
T1 construct: Lck kinase purified from bovine thymus; purchased Upstate Biotechnology 14-106; host or cells: bovine thymus (tissue-purified)
Method: The compounds were assayed as inhibitors of Lck kinase purified from bovine thymus (from Upstate Biotechnology, cat. no. 14-106). Lck kinase activity was monitored by following the incorporation of ^33P from ATP into the tyrosine of a random poly Glu-Tyr polymer substrate of composition, Glu:Tyr=4:1 (Sigma, cat. no. P-0275). The following were the final concentrations of the assay components: 0.05 M HEPES, pH 7.6, 10 mM MgCl2, 2 mM DTT, 0.25 mg/ml BSA, 10 μM ATP (1-2 μCi ^33P-ATP per reaction), 5 mg/ml poly Glu-Tyr, and 1-2 units of lck kinase. In a typical assay, all the reaction components with the exception of ATP were pre-mixed and aliquoted into assay plate wells. […] The assay plate was incubated at 30° C. for 10 min before initiating the reaction with ^33P-ATP. After 20 min of reaction, the reactions were quenched with 150 μl of 10% trichloroacetic acid (TCA) containing 20 mM Na3PO4. The quenched samples were then transferred to a 96-well filter plate (Whatman, UNI-Filter GF/F Glass Fiber Filter, cat no. 7700-3310) installed on a filter plate vacuum manifold. Filter plates were washed four times with 10% TCA containing 20 mM Na3PO4 and then 4 times with methanol. 200 μl of scintillation fluid was then added to each well. The plates were sealed and the amount of radioactivity associated with the filters was quantified on a TopCount scintillation counter.

[2] = target: T2, activated JNK3 (Homo sapiens, UniProt P53779); test: JNK inhibition assay (spectrophotometric coupled-enzyme assay); settings: 10 nM activated JNK3, 10 μM ATP; read-out: Activity in the JNK3 Inhibition Assay (Ki rating A-C)
T2 construct: One such construct encodes amino acid residues Ser40-Glu402 of JNK3α1 and is preceded by Met and Gly residues; Met-Gly (initiator methionine and added glycine) (N); made in house; host or cells: E. coli BL21 (DE3)
Source text: A BLAST search of the EST database using the published JNK3α1 cDNA as a query identified an EST clone (#632588) that contained the entire coding sequence for human JNK3α1. Polymerase chain reactions (PCR) using pfu polymerase (Strategene) were used to introduce restriction sites into the cDNA for cloning into the pET-15B expression vector at the NcoI and BamHI sites. The protein was expressed in E. coli. […] This truncation corresponds to Ser 2 of JNK1 and JNK2 proteins, and is preceded by a methionine (initiation) and a glycine residue. The glycine residue was added in order to introduce an NcoI site for cloning into the expression vector. In addition, systematic C-terminal truncations were performed by PCR to identify a construct that give rise to diffraction-quality crystals.
5 mg of JNK3 was diluted to 0.5 mg/ml in 50 mM HEPES buffer, pH 7.5, containing 100 mM NaCl, 5 mM DTT, 20 mM MgCl2 and 1 mM ATP. GST-MKK7(DD) was added at a molar ratio of 1:2.5 GST-MKK7:JNK3. After incubation for 30 minutes at 25° C., the reaction mixture was concentrated 5-fold by ultrafiltration in a Centriprep-30 (Amicon, Beverly, Mass.), diluted to 10 ml and an additional 1 mM ATP added. This procedure was repeated three times to remove ADP and replenish ATP. The final addition of ATP was 5 mM and the mixture incubated overnight at 4° C.
The activated JNK3/GST-MKK7(DD) reaction mixture was exchanged into 50 mM HEPES buffer, pH 7.5, containing 5 mM DTT and 5% glycerol (w/v) by dialysis or ultrafiltration. The reaction mixture was adjusted to 1.1 M potassium phosphate, pH 7.5, and purified by hydrophobic interaction chromatography (at 25° C.) using a Rainin Hydropore column. […] Activated JNK3 (i.e. doubly phosphorylated JNK3) was stored at −70° C. at 0.25-1 mg/ml.
Compounds were assayed for the inhibition of JNK3 by a spectrophotometric coupled-enzyme assay. In this assay, a fixed concentration of activated JNK3 (10 nM) was incubated with various concentrations of a potential inhibitor dissolved in DMSO for 10 minutes at 30° C. in a buffer containing 0.1 M HEPES buffer, pH 7.5, containing 10 mM MgCl2, 2.5 mM phosphoenolpyruvate, 200 μM NADH, 150 μg/mL pyruvate kinase, 50 μg/mL lactate dehydrogenase, and 200 μM EGF receptor peptide. […] The reaction was initiated by the addition of 10 μM ATP and the assay plate is inserted into the spectrophotometer's assay plate compartment that was maintained at 30° C. The decrease of absorbance at 340 nm was monitored as a function of time. The rate data as a function of inhibitor concentration was fitted to competitive inhibition kinetic model to determine the Ki.

[3] = target: Glycogen Synthase Kinase 3 (GSK-3) (Homo sapiens, UniProt P49841); test: GSK-3 inhibition assay (standard coupled enzyme assay); settings: 60 nM GSK-3, 10 μM ATP; read-out: GSK-3 Inhibitory Activity (Ki rating A-C)
Method: Compounds were screened in the following manner for their ability to inhibit Glycogen Synthase Kinase 3 (GSK-3) using a standard coupled enzyme assay (Fox et al (1998) Protein Sci 7, 2249). To an assay stock buffer solution containing 0.1M HEPES 7.5, 10 mM MgCl2, 25 mM NaCl, 2.5 mM phosphoenolpyruvate, 300 μM NADH, 1 mM DTT, 30 μg/mL pyruvate kinase, 10 μg/mL lactate dehydrogenase, 300 μM peptide (HSSPHQp-SEDEEE, American Peptide, Sunnyvale, Calif.), and 60 nM GSK-3, was added a 30 μM solution of the compound in DMSO and the resulting mixture incubated at 30° C. for 5 min. The reaction was initiated by the addition of 10 μM ATP. The rates of reaction were obtained by monitoring absorbance at 340 nm over a 5 minute read time at 30° C. using a Molecular Devices plate reader (Sunnyvale, Calif.). The IC50 was determined from the rate data as a function of inhibitor concentration.

[4] = target: CDK-2/Cyclin A (Homo sapiens, UniProt P24941); test: CDK2 inhibition assay (standard coupled enzyme assay); settings: 25 nM CDK-2/Cyclin A; read-out: CDK2 Inhibitory Activity (Ki rating A-C)
Method: Compounds were screened in the following manner for their ability to inhibit CDK2 using a standard coupled enzyme assay (Fox et al (1998) Protein Sci 7, 2249).
To an assay stock buffer solution containing 0.1M HEPES 7.5, 10 mM MgCl2, 1 mM DTT, 25 mM NaCl, 2.5 mM phosphoenolpyruvate, […], […], […], […], and 100 μM peptide ([…], American Peptide, Sunnyvale, Calif.) was added a DMSO solution of a compound of the present invention to a final concentration of 30 μM. The resulting mixture was incubated at 30° C. for 10 minutes.
The reaction was initiated by the addition of 10 μL of CDK-2/Cyclin A stock solution to give a final concentration of 25 nM in the assay. The rates of reaction were obtained by monitoring absorbance at 340 nm over a 5-minute read time at 30° C. using a BioRad Ultramark plate reader (Hercules, Calif.). The Ki values were determined from the rate data as a function of inhibitor concentration.

T2 sequence (P53779 40-402): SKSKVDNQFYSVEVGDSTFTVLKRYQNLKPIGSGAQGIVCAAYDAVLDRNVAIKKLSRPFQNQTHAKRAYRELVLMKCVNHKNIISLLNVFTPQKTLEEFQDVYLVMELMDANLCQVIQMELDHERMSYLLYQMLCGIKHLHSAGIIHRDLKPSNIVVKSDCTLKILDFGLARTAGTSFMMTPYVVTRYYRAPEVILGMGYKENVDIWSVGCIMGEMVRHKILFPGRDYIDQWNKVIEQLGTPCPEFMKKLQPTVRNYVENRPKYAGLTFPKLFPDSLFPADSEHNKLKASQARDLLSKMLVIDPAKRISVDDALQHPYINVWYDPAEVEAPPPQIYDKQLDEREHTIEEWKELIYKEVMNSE
T1 sequence (Q3ZCM0 1-509): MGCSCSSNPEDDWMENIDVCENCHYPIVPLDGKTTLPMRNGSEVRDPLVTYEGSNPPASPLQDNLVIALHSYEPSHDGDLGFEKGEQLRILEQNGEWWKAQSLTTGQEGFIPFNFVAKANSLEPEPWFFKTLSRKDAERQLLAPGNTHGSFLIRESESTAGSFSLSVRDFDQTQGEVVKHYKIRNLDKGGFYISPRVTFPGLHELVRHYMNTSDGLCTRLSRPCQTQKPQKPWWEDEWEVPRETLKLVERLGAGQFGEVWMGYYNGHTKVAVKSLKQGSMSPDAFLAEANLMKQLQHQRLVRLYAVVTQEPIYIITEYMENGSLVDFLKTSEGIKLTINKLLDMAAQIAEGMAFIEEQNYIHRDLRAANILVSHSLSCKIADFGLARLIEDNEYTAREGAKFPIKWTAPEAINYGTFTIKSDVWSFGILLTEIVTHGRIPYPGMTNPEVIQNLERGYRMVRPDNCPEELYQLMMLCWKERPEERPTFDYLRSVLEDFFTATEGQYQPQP
Chain of Glycogen Synthase Kinase 3 (GSK-3) (P49841 whole entry): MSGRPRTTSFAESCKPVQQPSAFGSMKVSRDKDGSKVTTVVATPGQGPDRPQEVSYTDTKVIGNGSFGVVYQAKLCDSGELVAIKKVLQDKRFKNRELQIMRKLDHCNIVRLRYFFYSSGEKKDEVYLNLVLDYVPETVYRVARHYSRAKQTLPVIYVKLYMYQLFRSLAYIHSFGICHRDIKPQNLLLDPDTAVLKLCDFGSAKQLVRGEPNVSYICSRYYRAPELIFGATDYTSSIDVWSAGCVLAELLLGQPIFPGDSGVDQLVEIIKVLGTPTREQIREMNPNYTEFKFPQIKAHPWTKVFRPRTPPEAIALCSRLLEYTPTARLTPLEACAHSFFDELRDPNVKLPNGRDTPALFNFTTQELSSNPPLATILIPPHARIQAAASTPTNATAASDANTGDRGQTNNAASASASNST

| SMILES | Ki [1] [nM] | Ki [4] [nM] | further results |
| --- | --- | --- | --- |
| COc1cc(-c2ccnc(Nc3cccc(S(N)(=O)=O)c3)n2)cc(OC)c1OC [Compound I-94] | 100 to 1000 | – | Ki [2]: < 100 nM |
| CCc1ccc(Nc2cc(-c3cc(OC)c(OC)c(OC)c3)ccn2)cc1 [Compound I-158] | – | – | Ki [3]: > 1000 nM |
| COc1ccc(-c2ccnc(Nc3cc(-c4cccnc4)ccc3C)n2)c(OC)c1OC [II-60] | 100 to 1000 | > 5000 | – |
| COc1ccc(-c2ccnc(Nc3cc(-c4ccc(N(C)C)cc4)ccc3C)n2)c(OC)c1OC [II-55] | < 100 | > 5000 | – |
| COc1ccc(-c2ccnc(Nc3cccc(-c4cccc(N)c4)c3)n2)c(OC)c1OC [II-51] | 100 to 1000 | > 5000 | – |
| COc1cc(-c2ccnc(Nc3cc(C)n[nH]3)n2)cc(OC)c1OC [Compound I-88] | – | – | Ki [3]: > 1000 nM; Ki [2]: 100 to 1000 nM |
| COc1ccc(-c2ccnc(Nc3cc(-c4cccc(Cl)c4)ccc3C)n2)c(OC)c1OC [II-54] | 100 to 1000 | > 5000 | – |
| COc1ccc(-c2ccnc(Nc3cccc(-c4ccc(F)c(Cl)c4)c3)n2)c(OC)c1OC [II-50] | 100 to 1000 | > 5000 | – |
| COc1cc(-c2ccnc(NCc3ccccc3)n2)cc(OC)c1OC [Compound I-37] | – | – | Ki [3]: > 1000 nM; Ki [2]: > 1000 nM |
| COc1ccc(-c2ccnc(Nc3cc(CO)ccc3C)n2)c(OC)c1OC [II-61] | 100 to 1000 | > 5000 | – |
| COc1ccc(-c2ccnc(Nc3cccc(OCc4ccccc4)c3)n2)c(OC)c1OCCN1CCOCC1 [II-20] | > 1000 | – | – |
| COc1ccc(-c2ccnc(Nc3cccc(F)c3)n2)c(OC)c1OC [II-5] | > 1000 | – | – |
| COc1cccc(Nc2nccc(-c3ccc(OC)c(OC)c3OC)n2)c1 [II-6] | 100 to 1000 | – | – |
| COc1cc(-c2ccnc(Nc3nccs3)n2)cc(OC)c1OC [Compound I-85] | 100 to 1000 | – | Ki [2]: 100 to 1000 nM |
| COc1cc(Oc2ccccc2)nc(Nc2nccc(-c3ccc(OC)c(OC)c3OC)n2)n1 [II-34] | > 1000 | – | – |
| CCOc1cccc(-c2ccc(C)c(Nc3nccc(-c4ccc(OC)c(OC)c4OC)n3)c2)c1 [II-59] | 100 to 1000 | > 5000 | – |
| COc1ccc(-c2ccnc(Nc3cccc(Oc4ccccc4)c3)n2)c(OCCN2CCOCC2)c1OC [II-21] | > 1000 | – | – |
| COc1ccc(-c2ccnc(Nc3cc(-c4cccc(C(F)(F)F)c4)ccc3C)n2)c(OC)c1OC [II-57] | > 1000 | > 5000 | – |
| COc1ccc(-c2ccnc(Nc3cccc(-c4ccc(N(C)C)cc4)c3)n2)c(OC)c1OC [II-52] | 100 to 1000 | > 5000 | – |

| SMILES | Ki [1] [nM] | Ki [4] [nM] | further results |
| --- | --- | --- | --- |
| COc1ccc(-c2ccnc(Nc3cc(-c4cc(C)ccc4C)ccc3C)n2)c(OC)c1OC [II-58] | > 1000 | > 5000 | – |
| COc1cccc(-c2cccc(Nc3nccc(-c4ccc(OC)c(OC)c4OC)n3)c2)c1 [II-42] | 100 to 1000 | – | – |
| COc1cc(-c2ccnc(Nc3ccc(F)cc3F)c2)cc(OC)c1OC [Compound I-159] | – | – | Ki [3]: 100 to 1000 nM |
| COc1ccc(-c2ccnc(Nc3cccc(-c4cccnc4)c3)n2)c(OC)c1OC [II-53] | 100 to 1000 | > 5000 | – |
| COc1c(-c2ccnc(Nc3cccc(Oc4ccccc4)c3)n2)ccc2c1OCCO2 [II-17, [4-(5-Methoxy-2,3-dihydro-benzo[1,4]dioxin-6-yl)-pyrimidin-2-yl]-(3-phenoxyphenyl)-amine] | > 1000 | – | – |
| COc1ccccc1-c1cccc(Nc2nccc(-c3ccc(OC)c(OC)c3OC)n2)c1 [II-41] | 100 to 1000 | – | – |
| COc1ccc(-c2ccnc(Nc3cccc(Oc4ccccc4)c3)n2)c(OC)c1OCCN1CCOCC1 [II-19] | > 1000 | – | – |
| COc1ccc(-c2ccnc(Nc3cc(C)cc(C)c3)n2)c(OC)c1OC [II-14, (3,5-Dimethylphenyl)-[4-(2,3,4-trimethoxyphenyl)-pyrimid-2-yl]-amine] | – | – | Activity in the Lck Inhibition Assay (percent inhibition rating D-F) ([1]; at a 5 μM inhibitor concentration): F (percent inhibition of between 67% and 100%) |
| COc1ccc(-c2ccnc(Nc3cccc(-c4ccc(CO)cc4)c3)n2)c(OC)c1OC [II-49] | < 100 | > 5000 | – |
| COc1ccc(-c2ccnc(Nc3ccc([N+](=O)[O-])cc3)n2)c(OC)c1OC [II-4] | 100 to 1000 | – | – |
| COc1ccc(-c2ccnc(Nc3cccc(-c4ccccc4F)c3)n2)c(OC)c1OC [II-35] | < 100 | – | – |
| COc1ccc(-c2ccnc(Nc3cccc(-c4ccc(F)cc4)c3)n2)c(OC)c1OC [II-37] | < 100 | – | – |
| COc1ccc(-c2ccnc(Nc3cccc(Cc4ccccc4)c3)n2)c(OC)c1OC [II-27] | 100 to 1000 | – | – |
| COc1ccc(-c2ccnc(Nc3cccc(-c4cccc(Cl)c4)c3)n2)c(OC)c1OC [II-39] | < 100 | – | – |
| COc1cc(-c2ccnc(Nc3cccc(N(C)C)c3)n2)cc(OC)c1OC [Compound I-89] | 100 to 1000 | – | Ki [2]: 100 to 1000 nM |
| COc1ccc(-c2ccnc(Nc3cccc(C)c3)n2)c(OC)c1OC [II-10] | > 1000 | – | – |
| COc1ccc(-c2ccnc(Nc3cccc(-c4cccc(F)c4)c3)n2)c(OC)c1OC [II-36] | < 100 | – | – |
| COc1ccc(-c2ccnc(Nc3cccc(Oc4ccncc4)c3)n2)c(OC)c1OC [II-23] | < 100 | – | – |
| COc1cc(-c2ccnc(Nc3ccc(F)c(F)c3)c2)cc(OC)c1OC [Compound I-160] | – | – | Ki [3]: > 1000 nM |
